Results: ChEMBL document CHEMBL3885861, “Open TG-GATES”

Organism: Rattus norvegicus
Test: Open TG-GATES - Regimen: Single
Assay type: toxicity, organism-based, Sprague-Dawley
Set-up: regimen Single, gender Male, age 6 weeks
Details: in vivo, po, route gavage; for Fbg / Hb / Ht / Lym / MCH / MCHC / MCV / Mono / Neu / PT / Plat / RBC / Ret / WBC / APTT / Bas / Eos: tissue Blood; for KIDNEY_L / KIDNEY_R / KIDNEY_TOTAL: tissue Kidney; for LIVER: tissue Liver; for A/G / ALP / ALT / AST / BUN / CRE / Ca / Cl / DBIL / GLC / IP / K / LDH / Na / PL / RALB / TBIL / TC / TG / TP / gamma-GTP: tissue Plasma
[1] = 300 mg/kg, 6 h, dose level Middle
[2] = 300 mg/kg, 9 h, dose level Middle
[3] = 300 mg/kg, 24 h, dose level Middle
[4] = 600 mg/kg, 3 h, dose level High
[5] = 600 mg/kg, 6 h, dose level High
[6] = 600 mg/kg, 9 h, dose level High
[7] = 600 mg/kg, 24 h, dose level High

O=C1CN(/N=C/c2ccc([N+](=O)[O-])o2)C(=O)N1 [NITROFURANTOIN]
Fbg [1]: 235.8 mg/dL
Hb [1]: 13.2 g/dL
Ht [1]: 40%
Lym [1]: 70.6%
MCH [1]: 21.1 pg
MCHC [1]: 33%
MCV [1]: 63.9 fL
Mono [1]: 8%
Neu [1]: 20%
PT [1]: 11.7 s
Plat [1]: 127.7 x10_4/uL
RBC [1]: 625.2 x10_4/ul
Ret [1]: 7.7%
WBC [1]: 80.2 x10_2/uL
KIDNEY_L [1]: 0.9 g
KIDNEY_R [1]: 0.9 g
KIDNEY_TOTAL [1]: 1.9 g
LIVER [1]: 8.7 g
A/G [1]: 2.4
ALP [1]: 1363.8 IU/L
ALT [1]: 30.6 IU/L
AST [1]: 63.4 IU/L
BUN [1]: 10 mg/dL
CRE [1]: 0.5 mg/dL
Ca [1]: 11.5 mg/dL
Cl [1]: 103.8 meq/L
DBIL [1]: 0.004 mg/dL
GLC [1]: 192.4 mg/dL
IP [1]: 9.1 mg/dL
K [1]: 4.2 meq/L
LDH [1]: 69 IU/L
Na [1]: 137.2 meq/L
PL [1]: 158.2 mg/dL
RALB [1]: 4.1 g/dL
TBIL [1]: 0.036 mg/dL
TC [1]: 113 mg/dL
TG [1]: 36.2 mg/dL
TP [1]: 5.8 g/dL
gamma-GTP [1]: 0.2 IU/L
TERMINAL_BW [2]: 204.4 g
APTT [2]: 17 s
Bas [2]: 0%
Eos [2]: 1.2%
Fbg [2]: 234.8 mg/dL
Hb [2]: 13.3 g/dL
Ht [2]: 40.4%
Lym [2]: 70.6%
MCH [2]: 21.5 pg
MCHC [2]: 33%
MCV [2]: 64.9 fL
Mono [2]: 7.8%
Neu [2]: 20.6%
PT [2]: 11.7 s
Plat [2]: 116.3 x10_4/uL
RBC [2]: 622.6 x10_4/ul
Ret [2]: 6.4%
WBC [2]: 62.7 x10_2/uL
KIDNEY_L [2]: 0.9 g
KIDNEY_R [2]: 1 g
KIDNEY_TOTAL [2]: 1.9 g
LIVER [2]: 8.9 g
A/G [2]: 2.2
ALP [2]: 1126.4 IU/L
ALT [2]: 29.6 IU/L
AST [2]: 59.4 IU/L
BUN [2]: 12.4 mg/dL
CRE [2]: 0.4 mg/dL
Ca [2]: 11.4 mg/dL
Cl [2]: 106 meq/L
DBIL [2]: 0.008 mg/dL
GLC [2]: 210 mg/dL
IP [2]: 8.5 mg/dL
K [2]: 4.4 meq/L
LDH [2]: 61.8 IU/L
Na [2]: 138.6 meq/L
PL [2]: 143.8 mg/dL
RALB [2]: 4 g/dL
TBIL [2]: 0.038 mg/dL
TC [2]: 88.6 mg/dL
TG [2]: 62.8 mg/dL
TP [2]: 5.9 g/dL
gamma-GTP [2]: 1 IU/L
TERMINAL_BW [3]: 197.5 g
APTT [3]: 16 s
Bas [3]: 0%
Eos [3]: 1.6%
Fbg [3]: 229.2 mg/dL
Hb [3]: 13.8 g/dL
Ht [3]: 42.2%
Lym [3]: 82%
MCH [3]: 21.3 pg
MCHC [3]: 32.6%
MCV [3]: 65.3 fL
Mono [3]: 4.2%
Neu [3]: 12.2%
PT [3]: 11.6 s
Plat [3]: 128 x10_4/uL
RBC [3]: 647 x10_4/ul
Ret [3]: 6.2%
WBC [3]: 69.5 x10_2/uL
KIDNEY_L [3]: 1 g
KIDNEY_R [3]: 1 g
KIDNEY_TOTAL [3]: 2.1 g
LIVER [3]: 8.1 g
A/G [3]: 2.2
ALP [3]: 1379.2 IU/L
ALT [3]: 32.6 IU/L
AST [3]: 62.6 IU/L
BUN [3]: 15.4 mg/dL
CRE [3]: 0.4 mg/dL
Ca [3]: 11.1 mg/dL
Cl [3]: 107.8 meq/L
DBIL [3]: 0.01 mg/dL
GLC [3]: 194.2 mg/dL
IP [3]: 9.1 mg/dL
K [3]: 4.6 meq/L
LDH [3]: 73.4 IU/L
Na [3]: 140.8 meq/L
PL [3]: 150.8 mg/dL
RALB [3]: 3.8 g/dL
TBIL [3]: 0.028 mg/dL
TC [3]: 85.8 mg/dL
TG [3]: 118.6 mg/dL
TP [3]: 5.6 g/dL
gamma-GTP [3]: 0 IU/L
TERMINAL_BW [4]: 206.4 g
APTT [4]: 16.4 s
Bas [4]: 0%
Eos [4]: 1%
Fbg [4]: 233.2 mg/dL
Hb [4]: 13.2 g/dL
Ht [4]: 40.3%
Lym [4]: 71%
MCH [4]: 21.1 pg
MCHC [4]: 32.8%
MCV [4]: 64.4 fL
Mono [4]: 6.4%
Neu [4]: 22.4%
PT [4]: 12.1 s
Plat [4]: 121.3 x10_4/uL
RBC [4]: 625.6 x10_4/ul
Ret [4]: 7.8%
WBC [4]: 72.9 x10_2/uL
KIDNEY_L [4]: 0.9 g
KIDNEY_R [4]: 1 g
KIDNEY_TOTAL [4]: 1.9 g
LIVER [4]: 8.8 g
A/G [4]: 2.2
ALP [4]: 1226.6 IU/L
ALT [4]: 36 IU/L
AST [4]: 64.4 IU/L
BUN [4]: 12 mg/dL
CRE [4]: 0.5 mg/dL
Ca [4]: 11.6 mg/dL
Cl [4]: 104 meq/L
DBIL [4]: 0 mg/dL
GLC [4]: 198.4 mg/dL
IP [4]: 10.1 mg/dL
K [4]: 4 meq/L
LDH [4]: 91.2 IU/L
Na [4]: 139.6 meq/L
PL [4]: 146 mg/dL
RALB [4]: 4.1 g/dL
TBIL [4]: 0.034 mg/dL
TC [4]: 90.8 mg/dL
TG [4]: 54.8 mg/dL
TP [4]: 5.9 g/dL
gamma-GTP [4]: 1 IU/L
TERMINAL_BW [5]: 204.9 g
APTT [5]: 16 s
Bas [5]: 0%
Eos [5]: 1%
Fbg [5]: 228.8 mg/dL
Hb [5]: 13.7 g/dL
Ht [5]: 41.9%
Lym [5]: 74.8%
MCH [5]: 20.9 pg
MCHC [5]: 32.8%
MCV [5]: 63.9 fL
Mono [5]: 5.8%
Neu [5]: 18.6%
PT [5]: 11.8 s
Plat [5]: 115.3 x10_4/uL
RBC [5]: 656.6 x10_4/ul
Ret [5]: 7.9%
WBC [5]: 63.6 x10_2/uL
KIDNEY_L [5]: 0.9 g
KIDNEY_R [5]: 0.9 g
KIDNEY_TOTAL [5]: 1.9 g
LIVER [5]: 8.7 g
A/G [5]: 2.4
ALP [5]: 1281.4 IU/L
ALT [5]: 34.6 IU/L
AST [5]: 64.4 IU/L
BUN [5]: 12.6 mg/dL
CRE [5]: 0.5 mg/dL
Ca [5]: 11.5 mg/dL
Cl [5]: 104.2 meq/L
DBIL [5]: 0.008 mg/dL
GLC [5]: 193 mg/dL
IP [5]: 9 mg/dL
K [5]: 4.3 meq/L
LDH [5]: 74.4 IU/L
Na [5]: 137.8 meq/L
PL [5]: 144.2 mg/dL
RALB [5]: 4.1 g/dL
TBIL [5]: 0.04 mg/dL
TC [5]: 99.6 mg/dL
TG [5]: 33 mg/dL
TP [5]: 5.8 g/dL
gamma-GTP [5]: 0 IU/L
TERMINAL_BW [6]: 205.1 g
APTT [6]: 16.6 s
Bas [6]: 0%
Eos [6]: 1%
Fbg [6]: 229 mg/dL
Hb [6]: 13.5 g/dL
Ht [6]: 41.1%
Lym [6]: 71.4%
MCH [6]: 21.2 pg
MCHC [6]: 32.9%
MCV [6]: 64.6 fL
Mono [6]: 8%
Neu [6]: 19.8%
PT [6]: 11.7 s
Plat [6]: 127.2 x10_4/uL
RBC [6]: 636.6 x10_4/ul
Ret [6]: 7.2%
WBC [6]: 77 x10_2/uL
KIDNEY_L [6]: 1 g
KIDNEY_R [6]: 0.9 g
KIDNEY_TOTAL [6]: 1.9 g
LIVER [6]: 8.9 g
A/G [6]: 2.3
ALP [6]: 1100.8 IU/L
ALT [6]: 28.6 IU/L
AST [6]: 59.4 IU/L
BUN [6]: 12.6 mg/dL
CRE [6]: 0.4 mg/dL
Ca [6]: 11.3 mg/dL
Cl [6]: 104.2 meq/L
DBIL [6]: 0.01 mg/dL
GLC [6]: 194 mg/dL
IP [6]: 9.2 mg/dL
K [6]: 4.4 meq/L
LDH [6]: 82.6 IU/L
Na [6]: 137.4 meq/L
PL [6]: 160.4 mg/dL
RALB [6]: 4.1 g/dL
TBIL [6]: 0.042 mg/dL
TC [6]: 104.4 mg/dL
TG [6]: 46 mg/dL
TP [6]: 5.9 g/dL
gamma-GTP [6]: 1 IU/L
TERMINAL_BW [7]: 201.7 g
APTT [7]: 16.3 s
Bas [7]: 0%
Eos [7]: 1.6%
Fbg [7]: 238 mg/dL
Hb [7]: 13.7 g/dL
Ht [7]: 41.6%
Lym [7]: 78.8%
MCH [7]: 21.2 pg
MCHC [7]: 33%
MCV [7]: 64.4 fL
Mono [7]: 8.2%
Neu [7]: 11.8%
PT [7]: 11.8 s
Plat [7]: 131.1 x10_4/uL
RBC [7]: 647 x10_4/ul
Ret [7]: 6.5%
WBC [7]: 54.6 x10_2/uL
KIDNEY_L [7]: 1 g
KIDNEY_R [7]: 1 g
KIDNEY_TOTAL [7]: 1.9 g
LIVER [7]: 8.3 g
A/G [7]: 2.2
ALP [7]: 1073.2 IU/L
ALT [7]: 21.4 IU/L
AST [7]: 54.8 IU/L
BUN [7]: 11.4 mg/dL
CRE [7]: 0.5 mg/dL
Ca [7]: 11.4 mg/dL
Cl [7]: 108 meq/L
DBIL [7]: 0.01 mg/dL
GLC [7]: 170.2 mg/dL
IP [7]: 8.9 mg/dL
K [7]: 4.1 meq/L
LDH [7]: 91.2 IU/L
Na [7]: 140.2 meq/L
PL [7]: 138.4 mg/dL
RALB [7]: 4 g/dL
TBIL [7]: 0.04 mg/dL
TC [7]: 95.6 mg/dL
TG [7]: 42.6 mg/dL
TP [7]: 5.9 g/dL
gamma-GTP [7]: 0 IU/L
